Data taken from ChEMBL document CHEMBL1151301, “Isolation of translactone-containing triterpenes with thrombin inhibitory activities from the leaves of Lantana camara” (J Nat Prod, 1998).

Molecular target: Prothrombin (Homo sapiens, UniProt P00734)
Assay: Inhibition of human thrombin by fibrinogen-clot assay

Row | Structure (SMILES) | IC50 [nM]
1 | CC(=O)OC[C@]12C[C@@H]3OC(=O)[C@H](CC(=O)C=C(C)C)[C@H]3[C@]1(C)[C@@H](O)C[C@H]1C2=CC[C@@H]2[C@]1(C)CC[C@@H](OC(C)=O)[C@@]2(C)C(=O)O[C@@H]1O[C@H](CO)[C@@H](O)[C@H](O)[C@H]1O | 70
2 | CC(C)=CC(=O)C[C@H]1C(=O)O[C@H]2C[C@]3(C)C4=CC[C@@H]5[C@](C)(CC[C@H]6OC(=O)[C@@]56C)[C@H]4CC[C@@]3(C)[C@@H]21 | 50
3 | CC(=O)O[C@@H]1CC[C@@]2(C)[C@@H](CC=C3[C@@H]2C[C@H](O)[C@@]2(C)[C@H]4[C@H](C[C@]32C)OC(=O)[C@@H]4CC(=O)C=C(C)C)[C@]1(C)C(=O)O | 90
4 | CC(=O)O[C@@H]1CC[C@@]2(C)[C@@H](CC=C3[C@@H]2CC[C@@]2(C)[C@H]4[C@H](C[C@]32C)OC(=O)[C@@H]4CC(=O)C=C(C)C)[C@]1(C)C(=O)O | 18
5 | CC(=O)O[C@@H]1CC[C@@]2(C)[C@@H](CC=C3[C@@H]2C[C@H](O)[C@@]2(C)[C@H]4[C@H](C[C@]32CO)OC(=O)[C@@H]4CC(=O)C=C(C)C)[C@]1(C)C(=O)O[C@@H]1O[C@H](CO)[C@@H](O)[C@H](O)[C@H]1O | 130
